How the values were obtained:
ATF4 = ATF4 immunoblot in cells; type: cell-based, human; details: 20 μM; 0, 2, 5, 7.5 h, FIG. 13
Procedure: (§1) For immunoblots, HeLa cells (80,000 cells/ml) were plated in 12-well plates 24 hours before each experiment. Immediately after the indicated treatments, cells were lysed in 75 μl Laemmli Buffer, boiled at 95° C. for 5 minutes and sonicated. Proteins were separated and analysed as described (Tsaytler et al., Science, 332, 91-94, 2011) with the following antibodies: phospho-elf2α [pS52] and PPP1R15A/GADD34 (10449-1-AP; ProteinTech Group, 1/1000 dilution) and ATF4 (Sc-200 Santa Cruz).
Translation can be inhibited at many levels. To ensure that the R15A and B inhibitors are on-target, we monitor the levels of ATF4 in cells treated with compounds. A R15A/B inhibitor persistently induce eIF2α phosphorylation and eIF2α phosphorylation results in ATF4 translation. We show here that an A/B inhibitor indeed induces ATF4, confirming target engagement in cells.

Db/db animals = experiment: Blood glucose in obese db/db mice; type: in vivo; details: 1 mg/kg once a day, three weeks
Procedure: For treatment of a metabolic disorder, Db/db animals (n=5 per condition) were treated once a day with 1 mg/kg of compound of Example 1 for three weeks. Blood glucose levels were measured with a blood glucose meter (DSI) between 9 and 10 am. Data are mean+/−S.e.m.
It is known that metabolic diseases such as diabetes, obesity, fatty liver disease, and atherosclerosis are associated with pathological ER stress and it is believed that pharmacological modulators of the UPR may have therapeutic benefit. As there were no PPP1R15B inhibitors available prior to this study it was unclear whether PPP1R15B could be a therapeutic target in metabolic diseases. […] Having shown in one disease model that treatment with a compound of Example 1 is beneficial, it is evident that the compounds of the invention will be beneficial to other mammalian metabolic disorders such as diabetes, obesity, fatty liver disease, and atherosclerosis.

PPP1R15A [1] = experiment: Assay 6: PPP1R15A induction in mouse brain (qPCR); type: in vivo; details: mice, dose-dependent
Procedure: RNA from brain was extracted in trizol (Life Technologies). RNA concentration was measured using a NANODROP1000 spectrophotometer (Thermo Fisher Scientific), and 1 μg was reverse transcribed to cDNA using a SuperScript reverse transcriptase (Life Technologies). Quantitative PCR with primers GAPDH (f): […], GAPDH (r): […], PPP1R15A (f): […]; and PPP1R15A (r): […] was performed using SYBR® Select Master Mix (Ref 4472908, applied biosystems) on a Corbett Rotor-Gene version 6000. Expression of each gene was normalized to the housekeeping gene GAPDH and expressed as fold change calculated using Paffl equation.
PPP1R15A induction was assessed by qPCR on total mRNA extracted from brains of mice treated with the indicated doses of compound of Example 1.
This explains why a selective PPP1R15B inhibitor is tolerated in mice: PPP1R15A induction dephosphorylates eIF2α, ensuring that the eIF2α phosphorylation which results from PPP1R15B inhibition by a compound of Example 1 is only transient. This is important because a persistent phosphorylation of eIF2α is detrimental. The induction of PPP1R15A in vivo by a PPP1R15B inhibitor is a pharmacodynamic parameter that can be used to evaluate the efficacy and potency of PPP1R15B inhibitors in mammals in pre-clinical or clinical studies.

[2] = Toxicity in mice (clinical signs, weight); type: in vivo; set-up: clinical signs: dose or concentration left out as unconfirmed; details: 2 weeks, oral
Procedure: For studying the effect of a compound of Example 1 on weight, C3H/B6 mice were gavaged orally once a day with compounds of Example 1 and mice weight was recorded daily for 2 weeks.
Mice were treated with Example 1 and monitored closely to detect any clinical signs. […] This establishes that PPP1R15B inhibition is not toxic. This was surprising and unanticipated as prior to this study one would have speculated that PPP1R15B inhibitors would be so deleterious that they would have no therapeutic potential.

PPP1R15A [3] = experiment: Assay 3: expression of PPP1R15A in cells; type: cell-based, human; details: late time points after addition, FIG. 2B
Procedure: as §1
Cells and organisms usually have mechanisms to compensate for deficiencies. The inventors therefore considered whether cells might compensate for PPP1R15B inhibition by inducing PPP1R15A. It has been previously reported that PPP1R15A levels are increased in the liver of PPP1R15B knock-out mice (Harding et al., Proc. Natl. Acad. Sci. U.S.A., 106, 1832-1837, 2009). It is unknown whether this compensatory response is specific to the liver or if it can happen in cells or other tissues. Furthermore, prior to this study, it was unknown whether PPP1R15A induction can be observed upon pharmacological inhibition of PPP1R15B, as they were no selective inhibitors of PPP1R15B prior to this study.

HeLa cells = experiment: Assay 4: protection of cells from tunicamycin stress (WST-8); type: cell-based, human; details: Tunicamycin 2.5 μg/ml, 0.2-5 μM compound, 3 days
Procedure: Cells were plated in 24-well plates at a density of 15,000 (HeLa) or 12,000 cells/ml (MEFs) 24 hours prior to treatment. ER stress was elicited by addition of fresh media containing 2.5 μg/ml tunicamycin (Sigma-Aldrich). Compounds of Example 1 were dissolved in DMSO and added as indicated. DMSO was used as a mock treatment. Cell viability was assessed by measuring the reduction of WST-8 [2-(2-methoxy-4-nitrophenyl)-3-(4-nitrophenyl)-5-(2,4-disulfophenyl)-2H-tetrazolium] into formazan using Cell viability Counting Kit-8 (Dojindo) according to the supplier's recommendation, […] after tunicamycin treatment.
Cells where stressed with Tunicamycin (2.5 μg/ml) in the presence of 0.2-5 μM of a compound of Example 1. Cell viability was measured 3 days after treatment.
Cytoprotection against ER stress can be measured by a suitable assay. In this instance, cytoprotection was measured in HeLa cells in which ER stress was elicited by the addition of media containing tunicamycin, a drug that blocks N-glycosylation, thereby preventing protein folding and inducing the unfolded protein response. Cell viability was then detected in the presence and absence of a compound of Example 1 after a set period of time, by measuring the reduction of WST-8 into formazan using the standard cell viability kit Cell Viability Counting Kit-8 from Dojindo. […]

Compound	expression of ATF4 (immunoblot) (ATF4)	blood glucose (Db/db animals)	PPP1R15A induction (mRNA, brain) (PPP1R15A [1])	clinical signs [2]	weight gain ([2]; up to 10 mg/mg once a day)	expression of PPP1R15A in cells (PPP1R15A [3])	protection of cells from stress (cell viability) (HeLa cells)
[H]/N=C(\N)NN=Cc1cc(Cl)cc(Cl)c1Cl [Compound 10, (E)-2-(2,3,5-trichlorobenzylidene)hydrazine-1-carboximidamide]	induces expression of ATF4	–	–	–	–	–	–
[H]/N=C(\N)NN=Cc1cccc(Cl)c1Cl [Compound 16, (E)-2-(2,3-dichlorobenzylidene)hydrazine-1-carboximidamide]	–	reduced the pathological high blood glucose	induced PPP1R15A	undistinguishable from mice treated with placebo	gained weight normally	induce PPP1R15A	protects cells from cytotoxic stress caused by tunicamycin
